Values after ≈ are worked out from the molar mass of the structure shown.
What was measured:
Format in all cases: functional
Enterococcus faecium [1] = assay: Antimicrobial activity against pbp5 gene-deficient vancomycin-, fusidic acid-, rifampin-resistant Enterococcus faecium D344SRF-C6 expressing hylEfm gene by agar dilution method
Enterococcus faecium [2] = assay: Antimicrobial activity against erythromycin-, streptomycin-resistant Enterococcus faecium TX1330RF-A1 conjugant expressing hylEfm gene by agar dilution method
Enterococcus faecium [3] = assay: Antimicrobial activity against vancomycin-, gentamicin-resistant Enterococcus faecium TX1330RF-B2 conjugant expressing hylEfm gene by agar dilution method
Enterococcus faecium [4] = assay: Antimicrobial activity against erythromycin-, streptomycin-resistant Enterococcus faecium A expressing hylEfm gene by agar dilution method
Enterococcus faecium [5] = assay: Antimicrobial activity against vancomycin-resistant Enterococcus faecium C expressing hylEfm gene by agar dilution method
Enterococcus faecium [6] = assay: Antimicrobial activity against pbp5 gene-deficient fusidic acid-, rifampin-resistant Enterococcus faecium D344SRF expressing hylEfm gene by agar dilution method
Enterococcus faecium [7] = assay: Antimicrobial activity against erythromycin-, streptomycin-, vancomycin-, gentamicin-resistant Enterococcus faecium TX1330RF-B1 conjugant expressing hylEfm gene by agar dilution method
Enterococcus faecium [8] = assay: Antimicrobial activity against vancomycin-, gentamicin-resistant Enterococcus faecium B expressing hylEfm gene by agar dilution method
Enterococcus faecium [9] = assay: Antimicrobial activity against fusidic acid-, rifampin-resistant Enterococcus faecium TX1330RF by agar dilution method

CC1(C)S[C@@H]2[C@H](NC(=O)[C@H](N)c3ccccc3)C(=O)N2[C@H]1C(=O)O [AMPICILLIN]
MIC (Enterococcus faecium [1]): < 0.25 µg/mL
MIC (Enterococcus faecium [2]): 1 µg/mL (≈ 2.86 µM)
MIC (Enterococcus faecium [3]): 1 µg/mL (≈ 2.86 µM)
MIC (Enterococcus faecium [4]): 4 µg/mL (≈ 11.4 µM)
MIC (Enterococcus faecium [5]): 128 µg/mL (≈ 366 µM)
MIC (Enterococcus faecium [6]): < 0.25 µg/mL
MIC (Enterococcus faecium [7]): 1 µg/mL (≈ 2.86 µM)
MIC (Enterococcus faecium [8]): 256 µg/mL (≈ 733 µM)
MIC (Enterococcus faecium [9]): 1 µg/mL (≈ 2.86 µM)

CC[C@H]1OC(=O)[C@H](C)[C@@H](O[C@H]2C[C@@](C)(OC)[C@@H](O)[C@H](C)O2)[C@H](C)[C@@H](O[C@@H]2O[C@H](C)C[C@H](N(C)C)[C@H]2O)[C@](C)(O)C[C@@H](C)C(=O)[C@H](C)[C@@H](O)[C@]1(C)O [ERYTHROMYCIN]
MIC (Enterococcus faecium [1]): > 512 µg/mL
MIC (Enterococcus faecium [2]): > 512 µg/mL
MIC (Enterococcus faecium [3]): 0.25 µg/mL (≈ 0.341 µM)
MIC (Enterococcus faecium [4]): > 512 µg/mL
MIC (Enterococcus faecium [5]): > 512 µg/mL
MIC (Enterococcus faecium [6]): 512 µg/mL (≈ 698 µM)
MIC (Enterococcus faecium [7]): > 512 µg/mL
MIC (Enterococcus faecium [8]): > 512 µg/mL
MIC (Enterococcus faecium [9]): 0.5 µg/mL (≈ 0.681 µM)

CN[C@H](CC(C)C)C(=O)N[C@H]1C(=O)N[C@@H](CC(N)=O)C(=O)N[C@H]2C(=O)N[C@H]3C(=O)N[C@H](C(=O)N[C@H](C(=O)O)c4cc(O)cc(O)c4-c4cc3ccc4O)[C@H](O)c3ccc(c(Cl)c3)Oc3cc2cc(c3O[C@@H]2O[C@H](CO)[C@@H](O)[C@H](O)[C@H]2O[C@H]2C[C@](C)(N)[C@H](O)[C@H](C)O2)Oc2ccc(cc2Cl)[C@H]1O [VANCOMYCIN]
MIC (Enterococcus faecium [3]): 256 µg/mL (≈ 177 µM)
MIC (Enterococcus faecium [5]): 256 µg/mL (≈ 177 µM)
MIC (Enterococcus faecium [8]): 512 µg/mL (≈ 353 µM)

Reference: ChEMBL document CHEMBL1649239, “Cotransfer of antibiotic resistance genes and a hylEfm-containing virulence plasmid in Enterococcus faecium” (2009)
